From patent US10870624B2, “Histone deacetylase inhibitors” (Karus Therapeutics Limited, priority 2013, dated 2020)

Assays:
Recombinant human HDAC6 = molecular target: T1, Recombinant human HDAC6 (Homo sapiens, UniProt Q9UBN7); test: Biochemical HDAC assay with acetylated AMC-labeled peptide substrate, HDAC6; conditions: HDAC6, 2 hours at 30° C.; read-out: IC50 (nM) HDAC 6
T1 construct: full length, MW=180 kDa, was expressed by baculovirus in Sf9 insect cells; GST (N); made in house; host or cells: Sf9 insect cells (baculovirus)
T1 sequence (Q9UBN7 1-1215): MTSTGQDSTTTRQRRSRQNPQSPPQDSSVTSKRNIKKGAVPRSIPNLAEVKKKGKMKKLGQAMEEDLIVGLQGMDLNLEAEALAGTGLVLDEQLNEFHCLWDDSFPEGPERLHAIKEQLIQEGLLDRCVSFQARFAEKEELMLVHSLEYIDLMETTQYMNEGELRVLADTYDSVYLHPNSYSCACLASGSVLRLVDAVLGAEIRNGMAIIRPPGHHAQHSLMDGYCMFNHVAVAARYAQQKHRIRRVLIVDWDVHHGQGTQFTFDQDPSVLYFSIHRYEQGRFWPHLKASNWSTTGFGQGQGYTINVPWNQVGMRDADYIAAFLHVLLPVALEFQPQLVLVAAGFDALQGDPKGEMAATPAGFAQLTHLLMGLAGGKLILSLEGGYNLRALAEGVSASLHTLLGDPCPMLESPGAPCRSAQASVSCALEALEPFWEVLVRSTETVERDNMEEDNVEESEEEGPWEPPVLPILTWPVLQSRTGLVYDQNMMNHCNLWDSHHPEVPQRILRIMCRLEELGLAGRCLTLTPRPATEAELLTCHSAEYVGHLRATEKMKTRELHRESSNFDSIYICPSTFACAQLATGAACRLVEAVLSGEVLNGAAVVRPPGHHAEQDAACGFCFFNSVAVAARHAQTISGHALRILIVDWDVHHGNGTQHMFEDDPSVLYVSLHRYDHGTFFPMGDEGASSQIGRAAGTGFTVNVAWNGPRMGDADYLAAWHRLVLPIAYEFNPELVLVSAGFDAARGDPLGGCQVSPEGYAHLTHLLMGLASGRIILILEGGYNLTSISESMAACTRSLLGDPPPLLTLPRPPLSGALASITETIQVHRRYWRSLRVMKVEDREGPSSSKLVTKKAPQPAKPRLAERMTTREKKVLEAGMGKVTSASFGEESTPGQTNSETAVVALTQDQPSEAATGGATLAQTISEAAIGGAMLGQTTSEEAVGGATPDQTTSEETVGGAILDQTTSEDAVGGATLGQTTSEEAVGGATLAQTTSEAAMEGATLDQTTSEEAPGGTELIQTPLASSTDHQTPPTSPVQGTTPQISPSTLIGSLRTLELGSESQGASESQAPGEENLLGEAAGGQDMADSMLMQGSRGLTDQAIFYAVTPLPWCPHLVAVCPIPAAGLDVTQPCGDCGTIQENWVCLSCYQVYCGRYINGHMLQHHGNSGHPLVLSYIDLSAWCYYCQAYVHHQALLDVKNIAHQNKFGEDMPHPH
Experimental: (§1) Activity against all zinc-dependent HDACs 1 to 11 was assessed by using an acetylated AMC-labeled peptide substrate. The substrate RHKKAc was used for all class I and IIb HDACs; for […], the substrate used was RHKAcKAc. […] All assays were based on the AMC-labeled substrate and developer combination.
(§2) The protocol involved a two-step reaction: first, the substrate with the acetylated lysine side chain is incubated with a sample containing HDAC activity, to produce the deacetylated products, which are then digested in the second step by the addition of developer to produce the fluorescent signal proportional to the amount of deacetylated substrates.
Recombinant human HDAC6 (GenBank Accession No. BC069243), full length, MW=180 kDa, was expressed by baculovirus in Sf9 insect cells using an N-terminal GST tag.
(§3) Before use, 1 mg/mL BSA and DMSO are added.
(§4) Incubate for 2 hours at 30° C.
(§5) Stage 1: Deacetylation of substrate by incubation of HDAC enzymes with compounds
(§6) Stage 2: Development by addition of Developer to digest the deacetylated substrate, and generate the fluorescent color; Detection: 360/460 Ex/Em

Human HDAC1 = molecular target: T2, Human HDAC1 (Homo sapiens, UniProt Q13547); test: Biochemical HDAC assay with acetylated AMC-labeled peptide substrate, HDAC1; conditions: HDAC1, 2 hours at 30° C.; read-out: IC50 (nM) HDAC 1
T2 construct: full length with C-terminal His-tag and C-terminal FLAG-tag; His-tag (C); FLAG-tag (C); made in house; host or cells: baculovirus expression system (insect cells)
Experimental: as §1, §2
Human HDAC1 (GenBank Accession No. NM_004964), full length with C-terminal His-tag and C-terminal FLAG-tag, MW=56 kDa, expressed in baculovirus expression system.
as §3, §4, §5, §6

T2 sequence (Q13547 whole entry): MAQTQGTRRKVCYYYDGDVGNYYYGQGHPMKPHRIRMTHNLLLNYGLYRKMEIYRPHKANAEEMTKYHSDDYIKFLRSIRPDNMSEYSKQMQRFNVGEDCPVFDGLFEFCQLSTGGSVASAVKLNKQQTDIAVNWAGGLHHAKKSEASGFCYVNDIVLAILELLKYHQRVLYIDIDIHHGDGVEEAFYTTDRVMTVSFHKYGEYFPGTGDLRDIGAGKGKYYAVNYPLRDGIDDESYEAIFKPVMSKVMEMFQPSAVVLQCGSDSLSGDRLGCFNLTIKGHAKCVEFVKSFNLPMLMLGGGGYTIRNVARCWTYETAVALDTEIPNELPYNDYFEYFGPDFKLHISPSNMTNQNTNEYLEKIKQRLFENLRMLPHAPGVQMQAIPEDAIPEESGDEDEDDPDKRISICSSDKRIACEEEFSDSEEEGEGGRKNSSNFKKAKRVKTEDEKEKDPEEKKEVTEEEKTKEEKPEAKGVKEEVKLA

SMILES: O=C(NO)c1ccc(CN(c2ccccn2)c2ccccn2)cc1 [Example A, 4-{[Bis(pyridin-2-yl)amino]methyl}-N-hydroxybenzamide]
- IC50 (Recombinant human HDAC6): ≤ 500 nM
- IC50 (Human HDAC1): > 10000 nM

SMILES: Cn1ccc(N(Cc2ccc(C(=O)NO)cc2)c2ccccn2)n1 [Example E, N-Hydroxy-4-(((1-methyl-1H-pyrazol-3-yl)(pyridin-2-yl)amino)methyl)benzamide]
- IC50 (Recombinant human HDAC6): ≤ 500 nM
- IC50 (Human HDAC1): 1000 to 10000 nM

SMILES: Cc1nsc(N(Cc2ccc(C(=O)NO)c(F)c2)c2nc(C)ns2)n1 [Example B, 4-{[Bis(3-methyl-1,2,4-thiadiazol-5-yl)amino]methyl}-2-fluoro-N-hydroxybenzamide]
- IC50 (Recombinant human HDAC6): ≤ 500 nM
- IC50 (Human HDAC1): > 10000 nM

SMILES: O=C(NO)c1ccc(CN(c2ccccn2)c2cnccn2)cc1 [Example G, N-Hydroxy-4-((pyrazin-2-yl(pyridin-2-yl)amino)methyl)benzamide]
- IC50 (Recombinant human HDAC6): ≤ 500 nM
- IC50 (Human HDAC1): > 10000 nM

SMILES: Cc1noc(N(Cc2ccc(C(=O)NO)cc2)c2ccccn2)n1 [Example D, N-Hydroxy-4-(((3-methyl-1,2,4-oxadiazol-5-yl)(pyridin-2-yl)amino)methyl)benzamide]
- IC50 (Recombinant human HDAC6): ≤ 500 nM
- IC50 (Human HDAC1): 1000 to 10000 nM

SMILES: Cc1noc(N(Cc2ccc(C(=O)NO)c(F)c2)c2nc(C)ns2)n1 [Example C, 2-Fluoro-N-hydroxy-4-{[(3-methyl-1,2,4-oxadiazol-5-yl)(3-methyl-1,2,4-thiadiazol-5-yl)amino]methyl}benzamide]
- IC50 (Recombinant human HDAC6): ≤ 500 nM
- IC50 (Human HDAC1): 1000 to 10000 nM

SMILES: O=C(NO)c1ccc(CN(c2ccccn2)c2nncs2)cc1 [Example F, N-Hydroxy-4-((pyridin-2-yl(1,3,4-thiadiazol-2-yl)amino)methyl)benzamide]
- IC50 (Recombinant human HDAC6): ≤ 500 nM
- IC50 (Human HDAC1): > 10000 nM
